Data as given in article PMC7211195 (Investigational New Drugs, 2019).
Like-named read-outs stand apart in the source and are kept apart here.

Assay: Lapatinib pharmacokinetics and uptake in rat brain tissue (BT);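 as to BT corr (BT homogenate corrected), single rat: brain concentration corrected for residual brain blood by the Fridén method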;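 as to BT corr (BT homogenate), single rat: brain concentration corrected for residual brain blood by the Fridén method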
Type: in vivo, rats
Conditions: male, Wistar, rat; for AUC(0-inf) / AUC(0-t) / Cmax / Tmax / k el: brain tissue
Method: This study was conducted on rats, which are a promising model to predict P-gp-based drug-drug interactions at the human BBB [15]. The animals were allowed to acclimate for one week before the beginning of the experiments. Adult male Wistar-strain rats (weight 470–525 g) were used in the study. The animals were maintained under standard breeding conditions with a 12/12 h light-dark cycle (lights on at 6.00 a.m., lights off at 6.00 p.m.) at constant room temperature (23 ± 2 °C), relative humidity (55 ± 10%) and ad libitum access to food and water. The experimental protocol for this study was reviewed and approved by the Local Ethics Committee. To obtain consistent data, the study was based on the required minimum number of animals and observation time. […] Three rats were used at each time point (n = 3). In total, the research was conducted on 66 animals (n = 33 in the experimental group and n = 33 in the control group).
Elacridar was freshly dissolved in a vehicle at an initial concentration of 20 mg/mL. […] A volume of 80 μL of blood was collected from each rat by cutting off a piece of its tail. The blood samples were collected into heparinized test tubes at the following time points: […], and they were immediately centrifuged at 2880 g for 10 min at 4 °C. The anaesthetized rats (anaesthetized by intramuscular administration of 50 mg/kg ketamine and 10 mg/kg xylazine) were prepared for cisterna magna puncture. The hair over the puncture was removed and the skin was disinfected with alcohol. The animals were placed in a recumbent position with an elevated rear part of the body. The animals’ heads were slightly flexed and immobilized with the operator’s left hand. The space between the occiput rostrally and the atlas (C1) of the spinal column caudally was gently palpated with the left thumb. A 0.7 × 20 G needle with polyethylene tubing (Terumo Poland, Warsaw, Poland) was gently inserted at an approximate angle of 80–90° through the skin with the operator’s right hand into the midsagittal region. The moment that dura mater perforation was perceptible, a small amount of CSF was found in the needle tubing. To sample additional CSF, a 1 mL insulin syringe (Becton Dickinson, Warsaw, Poland) was used to collect 80–120 μL of CSF by very gentle aspiration. Only clear CSF was collected for further analysis. […] The animals’ brains were immediately dissected, washed in 0.9% NaCl and divided along the longitudinal axis. One of the brain hemispheres was again rinsed three times with 5 mL of 0.9% NaCl, weighed and homogenized with 0.9% NaCl (4 mL per 1 g of BT) in an Ultra-Turrax homogenizer (Witko, Łódź, Poland). The homogenate was then centrifuged at 4500 g for 10 min. All samples of the rat BP, CSF, and BT homogenate supernatant were stored at −80 °C until analysis.
The chromatographic analysis was conducted using a 1260 Infinity system (Agilent Technologies, Santa Clara, USA) equipped with a Kinetex® C18 column (50 × 4.6 mm, 2.6 μm, Phenomenex, Torrance, USA), which was maintained at 35 °C. The mobile phase consisted of 0.1% formic acid (v/v) in water with 5 mM ammonium formate (solvent A) and acetonitrile with 10% phase A (v/v, solvent B). The analyte and internal standard (IS, erlotinib) were eluted using a gradient run of 10 min as follows: 95% A at 0–2 min; 95%–5% A at 2–4 min; 5% A at 4–5 min; 5%–95% A at 5–6 min; 95% A at 6–10 min. The flow rate and injection volume were set at 0.7 mL/min and 10 μL, respectively. The needle was washed for 30 s in a mixture of acetonitrile, methanol, isopropanol, water, and formic acid (50:20:15:15:0.25, v/v/v/v/v).

[1] = brain tissue homogenate, oral, lapatinib 100 mg/kg + elacridar, read-out: BT corr (BT homogenate), S
[2] = brain tissue homogenate, oral, lapatinib 100 mg/kg + elacridar, read-out: BT corr (BT homogenate), single rat
[3] = brain tissue homogenate, po, 100 mg/kg, lapatinib p.o. 100 mg/kg alone, read-out: BT corr (BT homogenate corrected), S
[4] = brain tissue homogenate, po, 100 mg/kg, lapatinib p.o. 100 mg/kg alone, read-out: BT corr (BT homogenate corrected), single rat
[5] = brain tissue homogenate, po, 100 mg/kg, lapatinib p.o. 100 mg/kg alone, read-out: Clapatinib in BT, S (medium value)
[6] = brain tissue homogenate, po, 100 mg/kg, lapatinib p.o. 100 mg/kg alone, read-out: Clapatinib in BT, single rat
[7] = brain, oral, lapatinib 100 mg/kg + elacridar, read-out: BT corr (BT homogenate), single rat
[8] = brain, oral, lapatinib 100 mg/kg + elacridar, read-out: Clapatinib in BT, S
[9] = brain, oral, lapatinib 100 mg/kg + elacridar, read-out: Clapatinib in BT, single rat
[10] = brain, po, 100 mg/kg, lapatinib 100 mg/kg oral + 5 mg/kg elacridar (IE+L)
[11] = brain, po, 100 mg/kg, lapatinib 100 mg/kg oral alone (IIL)

## CS(=O)(=O)CCNCc1ccc(-c2ccc3ncnc(Nc4ccc(OCc5cccc(F)c5)c(Cl)c4)c3c2)o1 [lapatinib, N-{3-Chloro-4-[(3-fluorobenzyl)oxy]phenyl}-6-[5-({[2-(methylsulfonyl)ethyl]amino}methyl)-2-furyl]-4-quinazolinamine]
[1]
  concentration at 2 h: 71.3 ng/mL
  concentration at 3 h: 198 ng/mL
  concentration at 4 h: 85 ng/mL
  concentration at 6 h: 85.8 ng/mL
  concentration at 8 h: 85 ng/mL
  concentration at 12 h: 54.4 ng/mL
  concentration at 24 h: 44.7 ng/mL
[2]
  concentration at 3 h: 170 ng/mL
  concentration at 4 h: 91.9 ng/mL
  concentration at 6 h: 87.3 ng/mL
  concentration at 8 h: 91.5 ng/mL
  concentration at 12 h: 63.6 ng/mL
  concentration at 24 h: 52.7 ng/mL
[3]
  concentration at 0.25 h: 27.9 ng/mL
  concentration at 0.5 h: 31.5 ng/mL
  concentration at 1 h: 55.5 ng/mL
  concentration at 2 h: 41.4 ng/mL
  concentration at 3 h: 111 ng/mL
  concentration at 4 h: 115 ng/mL
  concentration at 6 h: 81.9 ng/mL
  concentration at 8 h: 66.2 ng/mL
[4]
  concentration at 0.25 h: 22.5 ng/mL
  concentration at 0.5 h: 24 ng/mL
  concentration at 1 h: 48.1 ng/mL
  concentration at 2 h: 30.1 ng/mL
  concentration at 3 h: 139 ng/mL
  concentration at 4 h: 94.2 ng/mL
  concentration at 8 h: 87.5 ng/mL
[5]
  concentration at 0.25 h: 34.3 ng/mL
  concentration at 0.5 h: 44.9 ng/mL
  concentration at 1 h: 76 ng/mL
  concentration at 2 h: 63.7 ng/mL
  concentration at 3 h: 134 ng/mL
  concentration at 4 h: 147 ng/mL
  concentration at 6 h: 101 ng/mL
  concentration at 8 h: 85.5 ng/mL
  concentration at 12 h: 59.6 ng/mL
[6]
  concentration at 0.25 h: 27.7 ng/mL
  concentration at 0.5 h: 36.2 ng/mL
  concentration at 1 h: 66.5 ng/mL
  concentration at 2 h: 49.8 ng/mL
  concentration at 3 h: 115 ng/mL
  concentration at 4 h: 133 ng/mL
  concentration at 6 h: 131 ng/mL
  concentration at 8 h: 108 ng/mL
[7]
  concentration at 0.25 h: 30.7 ng/mL
  concentration at 0.5 h: 45.2 ng/mL
[8]
  concentration at 0.25 h: 40.8 ng/mL
  concentration at 0.5 h: 58.8 ng/mL
  concentration at 1 h: 98.6 ng/mL
  concentration at 2 h: 102 ng/mL
  concentration at 3 h: 221 ng/mL
  concentration at 4 h: 97.6 ng/mL
  concentration at 6 h: 98.7 ng/mL
  concentration at 8 h: 102 ng/mL
  concentration at 24 h: 56.9 ng/mL
[9]
  concentration at 0.25 h: 37.6 ng/mL
  concentration at 0.5 h: 62 ng/mL
  concentration at 1 h: 95.2 ng/mL
  concentration at 3 h: 198 ng/mL
  concentration at 4 h: 107 ng/mL
  concentration at 6 h: 100 ng/mL
  concentration at 8 h: 98.5 ng/mL
  concentration at 12 h: 86.5 ng/mL
  concentration at 24 h: 65.5 ng/mL
[10]
  AUC(0-inf): 2520 ± 611 ng·h/mL
  AUC(0-t): 1610 ± 131 ng·h/mL
  Cmax: 198 ± 39 ng/mL
  Tmax: 3 h
  k el: 1.39e-05 s⁻¹
[11]
  AUC(0-inf): 1350 ± 712 ng·h/mL
  AUC(0-t): 836 ± 21.2 ng·h/mL
  Cmax: 128 ± 16.4 ng/mL
  Tmax: 4.5 ± 2.12 h
  k el: 6.94e-05 s⁻¹
brain, po, 100 mg/kg, lapatinib p.o. 100 mg/kg alone, read-out: BT corr (BT homogenate corrected), S
  concentration at 12 h: 44.5 ng/mL
